Measured values: patent US20110098184A1, “Competitve differntial screeing” (priority 2004, published 2011)
Bridge positions count the residues as written; N and C are the ends. Peptide text beside a SMILES is read from it.

Molecular target: human stratum cornium chymotrypsin (hSCC) (Homo sapiens, UniProt P49862)
Assay: Mass spectrometric screening of a protein library against immobilized hSCC in the presence of competitor Ecotin
Type: binding
Conditions: library 10 nM per member, competitor Ecotin at 1 nM, 100 nM, 4 hrs incubation, biotinylated hSCC on streptavidin beads
Text: In this Example, mass spectrometric screening experiments are described. FIGS. 10-13 provide data and calculations obtained during these experiments. Inhibitors of human stratum cornium chymotrypsin (hSCC) were screened from a protein library made of BBI-loop-BLA (See e.g., U.S. patent application Ser. Nos. 10/984,270 and 10/984,410; and PCT Appln. Nos. US04/36976, US04/36979; and US04/36980), all of which are incorporated by reference herein). The protein library consisted of a protein backbone in which three non-consecutive positions were randomized (cysteine constrained) at the N-terminus of the protein. HSCC (screening target) (Swissprot, accession number P49862) was biotinylated and immobilized on streptavidin beads (MagnaBind Beads; Pierce).
HSCC was incubated with a protein library at 10 nM per library member in the presence of a competitor (Ecotin; Sigma) added at 1 nM, 10 nM, and 100 nM concentrations. Following incubation (4 hrs), the beads were washed with incubation buffer to remove nonspecific binders and specific binders were eluted with an elution solution.
The recovered binders were concentrated (vacuum concentration), resuspended in a digestion buffer, reduced, alkylated, and digested with proteolytic enzyme (Lys-c; Roche). The resulting protein digests were analyzed by capillary LC-ESI-MS/MS. […]

human stratum cornium chymotrypsin (hSCC), sequence (P49862 30-253): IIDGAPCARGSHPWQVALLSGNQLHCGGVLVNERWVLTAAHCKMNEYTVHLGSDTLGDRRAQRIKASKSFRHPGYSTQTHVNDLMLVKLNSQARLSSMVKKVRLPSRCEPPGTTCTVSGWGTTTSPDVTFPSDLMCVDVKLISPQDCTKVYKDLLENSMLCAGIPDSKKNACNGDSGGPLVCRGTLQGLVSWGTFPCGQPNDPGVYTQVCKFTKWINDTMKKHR

binder observed after elution (capillary LC-ESI-MS/MS): observed under all conditions
Compound: C[C@@H](O)[C@@H]1NC(=O)[C@@H](NC(=O)[C@@H]2CCCN2)CSSC[C@@H](C(=O)N[C@@H](Cc2ccc(O)cc2)C(=O)NCC(=O)NCC(=O)NCC(=O)N[C@@H](CCCCN)C(=O)O)NC(=O)[C@H](CCC(N)=O)NC(=O)[C@@H]2CCCN2C(=O)[C@@H]2CCCN2C(=O)[C@H](Cc2ccc(O)cc2)NC(=O)[C@H](CO)NC(=O)[C@H](Cc2ccccc2)NC1=O [pj02] (H-PCTFSYPPQCYGGGK-OH; disulfide 2-10 (inferred); N-terminus and C-terminus assumed)
